According to ChEMBL document CHEMBL1201862, “PubChem BioAssay data set” (2004):
Calls of active or inactive are those of the source.

Tests used:
[1] = system: Danio rerio; experiment: In Vivo Angiogenesis Dose-Response Confirmation. [Related pubchem assays: 732 (Assay preceding this confirmatory assay.)]; format: functional, organism-based
[2] = M. tuberculosis growth inhibition, HTS (AID 449762); format: functional
[3] = P. falciparum Dd2 growth inhibitors, dose response, SYBR Green, dry powder samples, set 9 (AID 1159568); format: functional, cell-based
[4] = IGROV1 ovarian cancer cell cytotoxicity, dose response, PAX8 inhibitor project, plate reader, dry powder samples (AID 743043); format: functional, cell-based; settings: IGROV-1
[5] = NIH:OVCAR-3 ovarian cancer cell cytotoxicity, dose response, PAX8 inhibitor project, plate reader, dry powder samples (AID 743044); format: functional, cell-based
[6] = molecular target: Paired box protein Pax-8 (Homo sapiens, UniProt Q06710); experiment: inhibitors of PAX8-driven TPO luciferase reporter, dose response, RMG-I cells, cherry-pick (AID 687027); format: functional, cell-based;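 also: luciferase reporter driven by Pax8 target thyroperoxidase promoter measured by SteadyGlo luminescence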
Paired box protein Pax-8, sequence (Q06710 whole entry): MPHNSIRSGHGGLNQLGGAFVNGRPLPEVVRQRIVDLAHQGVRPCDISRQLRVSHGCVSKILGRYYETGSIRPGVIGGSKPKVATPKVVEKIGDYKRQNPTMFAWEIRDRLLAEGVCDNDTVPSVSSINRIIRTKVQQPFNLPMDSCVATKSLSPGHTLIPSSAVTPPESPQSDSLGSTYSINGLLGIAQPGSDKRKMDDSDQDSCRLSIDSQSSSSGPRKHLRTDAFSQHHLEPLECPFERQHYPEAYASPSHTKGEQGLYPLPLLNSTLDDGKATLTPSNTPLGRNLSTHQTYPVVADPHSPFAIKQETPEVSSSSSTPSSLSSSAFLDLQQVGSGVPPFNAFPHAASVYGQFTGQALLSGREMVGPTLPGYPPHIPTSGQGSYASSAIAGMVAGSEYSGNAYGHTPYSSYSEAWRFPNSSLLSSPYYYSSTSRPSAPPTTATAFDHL

[7] = growth suppression of PTEN-null colon cells, dose response, cell-based, HCT116 PTEN knockout (AID 1047); format: functional;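 also: HCT116 colon tumor cells with PTEN knocked out; cells exposed to compound for 60 hours before readout; potency for loss of cell viability measured by luminescence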
[8] = system: INS1; experiment: beta cell apoptosis inhibitors, cytokine rescue, dose response, luminescence, retest (AID 449756); format: functional, cell-based; settings: Rattus norvegicus;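 also: cell death triggered by IL-1 beta plus TNF-alpha plus IFN-gamma mixture; protective hits raise ATP signal compared with cytokine alone wells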
[9] = molecular target: Large T antigen (Simian virus 40, UniProt P03070); format: functional, Betapolyomavirus macacae;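 also: Confirmatory-stage PubChem screen for compounds that inhibit SV40 T antigen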
Large T antigen, sequence (P03070 whole entry): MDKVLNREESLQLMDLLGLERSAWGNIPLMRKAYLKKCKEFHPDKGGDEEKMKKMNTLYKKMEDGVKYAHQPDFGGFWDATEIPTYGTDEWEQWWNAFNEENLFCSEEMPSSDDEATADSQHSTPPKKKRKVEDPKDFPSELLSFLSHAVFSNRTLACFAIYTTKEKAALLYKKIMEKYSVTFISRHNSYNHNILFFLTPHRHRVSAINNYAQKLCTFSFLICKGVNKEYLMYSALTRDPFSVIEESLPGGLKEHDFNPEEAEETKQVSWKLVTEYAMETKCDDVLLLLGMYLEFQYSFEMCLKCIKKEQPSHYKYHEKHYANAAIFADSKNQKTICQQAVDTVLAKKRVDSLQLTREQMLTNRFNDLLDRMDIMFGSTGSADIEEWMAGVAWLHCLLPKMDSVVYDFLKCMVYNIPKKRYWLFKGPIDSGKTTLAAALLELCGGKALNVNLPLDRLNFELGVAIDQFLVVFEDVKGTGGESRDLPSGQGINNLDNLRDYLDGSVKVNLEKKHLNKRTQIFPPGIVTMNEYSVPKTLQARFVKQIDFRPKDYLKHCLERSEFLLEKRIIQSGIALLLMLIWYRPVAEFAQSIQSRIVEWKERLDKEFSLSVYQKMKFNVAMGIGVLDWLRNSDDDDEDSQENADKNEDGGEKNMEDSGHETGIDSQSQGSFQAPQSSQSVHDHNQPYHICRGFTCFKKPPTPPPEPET

[10] = molecular target: Galanin receptor type 2 (Homo sapiens, UniProt O43603); experiment: Dose Response cell-based high-throughput screening assay to identify agonists of galanin receptor 2 (GALR2). [Related pubchem assays: 864 ]; format: functional
Galanin receptor type 2, sequence (O43603 whole entry): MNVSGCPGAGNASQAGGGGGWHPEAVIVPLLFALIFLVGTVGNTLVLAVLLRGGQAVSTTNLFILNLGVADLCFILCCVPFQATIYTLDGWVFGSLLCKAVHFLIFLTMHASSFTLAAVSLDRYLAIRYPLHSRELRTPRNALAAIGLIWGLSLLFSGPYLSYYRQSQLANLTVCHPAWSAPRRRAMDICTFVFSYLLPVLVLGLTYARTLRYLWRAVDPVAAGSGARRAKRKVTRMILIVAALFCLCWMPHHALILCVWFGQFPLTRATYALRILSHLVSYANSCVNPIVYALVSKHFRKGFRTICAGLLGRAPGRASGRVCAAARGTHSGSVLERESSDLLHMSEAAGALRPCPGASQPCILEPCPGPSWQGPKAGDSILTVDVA

[11] = growth suppression of beta-catenin-knockout colon cells, dose response, cell-based, HCT116, human colon tumor (AID 1045); format: functional;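 also: HCT116 colon tumor cells with beta catenin knocked out; cells exposed to compound for 60 hours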
[12] = molecular target: T1, Mannose-6-phosphate isomerase (Homo sapiens, UniProt P34949); experiment: human PMI inhibitors, high substrate, primary screen, biochemical, fluorescence intensity, high mannose 6-phosphate (AID 1220)
T1 sequence (P34949 whole entry): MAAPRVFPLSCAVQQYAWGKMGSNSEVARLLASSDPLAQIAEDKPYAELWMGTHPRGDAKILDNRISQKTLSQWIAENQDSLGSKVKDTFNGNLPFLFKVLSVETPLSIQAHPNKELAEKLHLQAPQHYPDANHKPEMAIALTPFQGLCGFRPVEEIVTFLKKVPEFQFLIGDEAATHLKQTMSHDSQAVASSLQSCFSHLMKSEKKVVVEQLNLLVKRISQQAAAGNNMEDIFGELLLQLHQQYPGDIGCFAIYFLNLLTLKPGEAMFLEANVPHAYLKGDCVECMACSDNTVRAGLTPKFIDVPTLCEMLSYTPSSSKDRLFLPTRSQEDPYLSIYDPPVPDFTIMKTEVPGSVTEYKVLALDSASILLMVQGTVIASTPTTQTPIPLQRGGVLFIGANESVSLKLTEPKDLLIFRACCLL

[13] = molecular target: Heat shock protein HSP 90-alpha (Homo sapiens, UniProt P07900); format: functional, organism-based
[14] = A549 cell cytotoxicity, dose response, cytotoxicity control, plate reader, dry powder, set 6 (AID 743312); format: functional, cell-based
[15] = cells; settings: HEK293
[16] = HepG2 cell cytotoxicity, dose response, cytotoxicity control, plate reader, dry powder, set 6 (AID 743311); format: functional, cell-based
[17] = Dose-response inhibition of insulin secretion in a rat insulinoma line at 5 mM glucose (AID 1117331); format: functional, cell-based; settings: INS-1E
[18] = cytotoxicity toward Colo320 cells – cell-based, CellTiter-Glo luminescence, IC50, dose response (AID 1117334); format: functional; settings: COLO 320
[19] = SNU-C1 cell viability reduction, dose response, CellTiter-Glo luminescence (AID 1117323); format: functional, cell-based
[20] = cytotoxicity toward HT-29 cells – cell-based, CellTiter-Glo luminescence, IC50, dose response (AID 1117330); format: functional
[21] = CellTiter-Glo luminescent dose response of DLD-1 viability loss (AID 1117352); format: functional
[22] = HeLa 4N DNA content increase, dose response, cell-based, IC50 (AID 1117351); format: functional
[23] = HeLa 2N DNA content increase, dose response, cell-based, IC50 (AID 1117349); format: functional
[24] = Concentration-dependent survival of SW480 colon cancer line, luminescence detection with CellTiter-Glo, half-maximal inhibitory concentration (AID 1117338); format: functional
[25] = HCT116 cell viability decrease, GSK3B pretreatment – CellTiter-Glo, IC50, dose response (AID 1117339); format: functional; settings: HCT-116
[26] = RKO cell viability reduction, dose response, CellTiter-Glo luminescence (AID 1117322); format: functional

O=C1Nc2ccccc2/C1=C1/Nc2ccc(Br)cc2/C1=N\O
IC50 [1]: > 10 µM (not active)

O=C(O)c1ccccc1C(=O)NNc1ccc(Cl)cc1Cl
IC50 [2]: > 100 µM (active)

O=C(Nc1ccccc1F)N1CCCCN2[C@@H](CO)[C@@H](c3ccc(/C=C/c4ccccc4)cc3)[C@@H]2C1
AC50 [3]: 2.52 µM (active) | AC50 [4]: 29.1 µM (active) | AC50 [5]: 10.6 µM (active) | AC50 [6]: 7.96 µM (active)

CC1=C/C(=N\OS(=O)(=O)c2ccccc2)C(C(C)C)=CC1=O
EC50 [7]: 2.93 µM (active) | AC50 [8]: 3.88 µM (active) | IC50 [9]: 48.2 µM (active) | EC50 [10]: > 55.7 µM (not active) | EC50 [11]: 3.13 µM (active) | IC50 [12]: 6.04 µM (active) | AC50 [13]: 0.751 µM (active)

Cc1ccc(C(C)C)c(OCCn2c(CO)nc3ccccc32)c1
AC50 [14]: 38.5 µM (active) | AC50 [15]: 32.2 µM (active) | AC50 [16]: 37.4 µM (active)

CC(=O)Oc1ccc(C2(c3ccc(OC(C)=O)cc3)Oc3ccccc3NC2=O)cc1 [BISOXATIN ACETATE]
IC50 [17]: > 33.3 µM (inactive) | IC50 [18]: > 20 µM (inactive) | IC50 [19]: > 20 µM (inactive) | IC50 [20]: > 20 µM (inactive) | IC50 [21]: 19.7 µM (inactive) | IC50 [22]: > 10 µM (inactive) | IC50 [23]: > 10 µM (inactive) | IC50 [24]: 9.19 µM (inactive) | IC50 [25]: 3.26 µM (active) | IC50 [26]: 9.23 µM (inactive)
